The term IC50 denotes the point on the concentration scale where inhibition reaches its midpoint.

One test addresses T1, ITK (Homo sapiens, UniProt Q08881).
T1 construct: purchased Promega Corporation
T1 sequence (Q08881 1-620): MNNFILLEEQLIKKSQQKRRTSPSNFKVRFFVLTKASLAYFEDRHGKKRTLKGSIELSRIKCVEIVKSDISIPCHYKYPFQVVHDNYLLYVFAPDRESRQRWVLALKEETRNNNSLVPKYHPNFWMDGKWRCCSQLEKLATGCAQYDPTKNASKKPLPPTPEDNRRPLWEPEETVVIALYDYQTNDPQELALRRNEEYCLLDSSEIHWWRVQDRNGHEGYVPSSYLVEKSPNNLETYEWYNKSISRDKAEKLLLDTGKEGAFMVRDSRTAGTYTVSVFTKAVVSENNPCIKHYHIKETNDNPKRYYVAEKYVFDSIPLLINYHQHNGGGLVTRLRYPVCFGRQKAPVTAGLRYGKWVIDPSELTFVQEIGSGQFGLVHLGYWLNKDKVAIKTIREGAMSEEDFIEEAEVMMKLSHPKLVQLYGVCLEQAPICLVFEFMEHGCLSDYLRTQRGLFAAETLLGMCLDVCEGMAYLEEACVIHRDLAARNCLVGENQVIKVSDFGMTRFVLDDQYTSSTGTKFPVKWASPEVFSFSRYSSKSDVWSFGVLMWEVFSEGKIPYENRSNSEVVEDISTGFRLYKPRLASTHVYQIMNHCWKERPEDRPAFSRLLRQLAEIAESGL
Put plainly: Inhibitory activity against ITK (ADP-Glo + ITK Kinase enzyme system kit); selectivity BTK vs. ITK. Format: biochemical. The note with it: for IC50: ITK enzyme 0.4 ng/uL, ATP 25 uM, luminescence, duplicate; for Selectivity (based on IC50): selectivity for the inhibitory activity of BTK vs. ITK, Equation 1.

A further test addresses BTK (Homo sapiens, UniProt Q06187). Description: Inhibitory activity against BTK (ADP-Glo + BTK Kinase enzyme system kit).

Chain of BTK (Q06187 whole entry): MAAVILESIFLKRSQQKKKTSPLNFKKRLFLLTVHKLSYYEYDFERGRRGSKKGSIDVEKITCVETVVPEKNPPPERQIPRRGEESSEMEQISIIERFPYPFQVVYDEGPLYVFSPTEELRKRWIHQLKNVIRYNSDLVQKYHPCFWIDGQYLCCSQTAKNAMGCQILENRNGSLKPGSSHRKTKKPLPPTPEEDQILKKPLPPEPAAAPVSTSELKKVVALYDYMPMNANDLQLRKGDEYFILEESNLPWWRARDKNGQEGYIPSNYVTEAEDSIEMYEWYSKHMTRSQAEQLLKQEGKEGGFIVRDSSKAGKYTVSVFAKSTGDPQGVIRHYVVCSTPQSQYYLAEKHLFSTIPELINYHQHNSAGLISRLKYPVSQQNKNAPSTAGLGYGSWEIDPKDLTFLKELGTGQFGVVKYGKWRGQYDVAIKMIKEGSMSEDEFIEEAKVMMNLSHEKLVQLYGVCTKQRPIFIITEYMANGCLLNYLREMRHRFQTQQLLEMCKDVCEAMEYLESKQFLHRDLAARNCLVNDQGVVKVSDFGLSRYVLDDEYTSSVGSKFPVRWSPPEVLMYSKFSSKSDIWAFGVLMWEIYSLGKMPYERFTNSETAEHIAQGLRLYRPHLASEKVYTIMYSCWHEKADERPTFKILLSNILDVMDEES

In the case of `C=CC(=O)N1CC2CC1C(n1nc(-c3ccc(Oc4cccc(OC)c4)cc3)c3c(N)ncnc31)C2` (stereo not drawn) [Ex. 41, 1-(6-(4-amino-3-(4-(3-methoxyphenoxy)phenyl)-1H-pyrazolo[3,4-d]pyrimidin-1-yl)-2-azabicyclo[2.2.1]heptan-2-yl)prop-2-en-1-one], at ITK, the IC50 was above 1000 nM and the “Selectivity (based on IC50)” value is reported as above 222.2. The half-inhibitory concentration (IC50) at BTK is 4.5 nM.
For `C=CC(=O)N1CC2CC1C(n1nc(-c3ccc(Oc4cccc(N(C)C)c4)cc3)c3c(N)ncnc31)C2` (stereo not drawn) [Ex. 42, 1-(6-(4-amino-3-(4-(3-(dimethylamino)phenoxy)phenyl)-1H-pyrazolo[3,4-d]pyrimidin-1-yl)-2-azabicyclo[2.2.1]heptan-2-yl)prop-2-en-1-one], in that order: above 500 nM, above 147 and 3.4 nM.
With `C=CC(=O)N1CC2CC1C(n1nc(-c3ccc(Oc4cccc(C(F)(F)F)c4)cc3)c3c(N)ncnc31)C2` (stereo not drawn) [Ex. 43, 1-(6-(4-amino-3-(4-(3-(trifluoromethyl)phenoxy)phenyl)-1H-pyrazolo[3,4-d]pyrimidin-1-yl)-2-azabicyclo[2.2.1]heptan-2-yl)prop-2-en-1-one], on ITK, the 50% inhibitory concentration (IC50) amounted to 268 nM and the “Selectivity (based on IC50)” value came to 86.4. In addition, at BTK, the IC50 amounted to 3.1 nM.
As to `C=CC(=O)N1CC2CC1C(n1nc(-c3ccc(C(=O)Nc4cccc(Cl)c4)cc3)c3c(N)ncnc31)C2` (stereo not drawn) [Ex. 48, 4-(1-(2-acryloyl-2-azabicyclo[2.2.1]heptan-6-yl)-4-amino-1H-pyrazolo[3,4-d]pyrimidin-3-yl)-N-(3-chlorophenyl)benzamide], at ITK, the IC50 turned out to be 401 nM and the “Selectivity (based on IC50)” value amounted to 85.3. At BTK, the half-maximal inhibitory concentration (IC50) is 4.7 nM.
For `C=CC(=O)N1CC2CC1C(n1nc(-c3ccc(C(=O)Nc4ccccn4)cc3)c3c(N)ncnc31)C2` (stereo not drawn) [Ex. 49, 4-(1-(2-acryloyl-2-azabicyclo[2.2.1]heptan-6-yl)-4-amino-1H-pyrazolo[3,4-d]pyrimidin-3-yl)-N-(pyridin-2-yl)benzamide], in that order: above 500 nM, above 142.9 and 3.5 nM.
For `C=CC(=O)N1CC2CC1C(n1nc(-c3ccc(C(=O)Nc4cnccn4)cc3)c3c(N)ncnc31)C2` (stereo not drawn) [Ex. 53, 4-(1-(2-acryloyl-2-azabicyclo[2.2.1]heptan-6-yl)-4-amino-1H-pyrazolo[3,4-d]pyrimidin-3-yl)-N-(pyrazin-2-yl)benzamide], in that order: above 1000 nM, above 370.3 and 2.7 nM.
For `C=CC(=O)N1CC2CC1C(n1nc(-c3ccc(S(=O)(=O)Nc4ccccc4)cc3)c3c(N)ncnc31)C2` (stereo not drawn) [Ex. 54, 4-(1-(2-acryloyl-2-azabicyclo[2.2.1]heptan-6-yl)-4-amino-1H-pyrazolo[3,4-d]pyrimidin-3-yl)-N-phenylbenzenesulfonamide], in that order: above 1000 nM, above 454.5 and 2.2 nM.
Turning to `C=CC(=O)N1CC2CCC1C(n1nc(-c3ccc(Oc4ccccc4)cc3)c3c(N)ncnc31)C2` (stereo not drawn) [Ex. 59, 1-(6-(4-amino-3-(4-phenoxyphenyl)-1H-pyrazolo[3,4-d]pyrimidin-1-yl)-2-azabicyclo[2.2.2]octan-2-yl)prop-2-en-1-one], the IC50 at ITK was determined as 110 nM; at BTK, 2.8 nM. Besides, the “Selectivity (based on IC50)” value at ITK was 39.1.
For `Nc1ncnc2c1c(-c1ccc(Oc3ccccc3)cc1)nn2C1CC2CC1N(C(=O)/C=C/CN1CCCCC1)C2` (stereo not drawn) [Ex. 63, (E)-1-(6-(4-amino-3-(4-phenoxyphenyl)-1H-pyrazolo[3,4-d]pyrimidin-1-yl)-2-azabicyclo[2.2.1]heptan-2-yl)-4-(piperidin-1-yl)but-2-en-1-one], in that order: above 500 nM, 1.5 nM and above 333.3.
For `C=CC(=O)N1CC2CC1C(n1nc(-c3ccc(C(=O)Nc4ccccn4)cc3F)c3c(N)ncnc31)C2` (stereo not drawn) [Ex. 64, 4-(1-(2-acryloyl-2-azabicyclo[2.2.1]heptan-6-yl)-4-amino-1H-pyrazolo[3,4-d]pyrimidin-3-yl)-3-fluoro-N-(pyridin-2-yl)benzamide], in that order: 71.5 nM, 1.6 nM and 44.7.
With `C=CC(=O)N1CC2CC1C(n1nc(-c3ccc(C(=O)Nc4cc(F)ccn4)cc3)c3c(N)ncnc31)C2` (stereo not drawn) [Ex. 67, 4-(1-(2-acryloyl-2-azabicyclo[2.2.1]heptan-6-yl)-4-amino-1H-pyrazolo[3,4-d]pyrimidin-3-yl)-N-(4-fluoropyridin-2-yl)benzamide], the IC50 was determined as 54.1 nM on ITK and 0.5 nM at BTK. In addition, the “Selectivity (based on IC50)” value at ITK turned out to be 108.2.
As for `C=CC(=O)N1CC2CC1C(n1nc(-c3ccc(C(=O)Nc4cc(C)ccn4)cc3)c3c(N)ncnc31)C2` (stereo not drawn) [Ex. 68, 4-(1-(2-acryloyl-2-azabicyclo[2.2.1]heptan-6-yl)-4-amino-1H-pyrazolo[3,4-d]pyrimidin-3-yl)-N-(4-methylpyridin-2-yl)benzamide], on ITK, the IC50 is 176 nM and the “Selectivity (based on IC50)” value amounted to 73.1. Moreover, the half-maximal inhibitory concentration (IC50) at BTK was 2.4 nM.
As for `C=CC(=O)N1C[C@@H]2C[C@@H]1[C@@H](n1nc(-c3ccc(C(=O)Nc4ccccn4)cc3)c3c(N)ncnc31)C2` [Ex. 69, 4-(1-((1R,4R,6S)-2-acryloyl-2-azabicyclo[2.2.1]heptan-6-yl)-4-amino-1H-pyrazolo[3,4-d]pyrimidin-3-yl)-N-(pyridin-2-yl)benzamide], the values for the IC50 on ITK and on BTK were 235 nM and 1.3 nM, respectively. The “Selectivity (based on IC50)” value at ITK worked out at 181.2.
For `C=CC(=O)N1CC2CC1C(n1nc(-c3ccc(C(=O)Nc4cc(C#N)ccn4)cc3)c3c(N)ncnc31)C2` (stereo not drawn) [Ex. 71, 4-(1-(2-acryloyl-2-azabicyclo[2.2.1]heptan-6-yl)-4-amino-1H-pyrazolo[3,4-d]pyrimidin-3-yl)-N-(4-cyanopyridin-2-yl)benzamide], in that order: 133 nM, 0.9 nM and 147.7.
Consider `C=CC(=O)N1C[C@@H]2C[C@H]1[C@@H](n1nc(-c3ccc(C(=O)Nc4cc(F)ccn4)cc3)c3c(N)ncnc31)C2` [Ex. 72, 4-(1-((1S,4R,6S)-2-acryloyl-2-azabicyclo[2.2.1]heptan-6-yl)-4-amino-1H-pyrazolo[3,4-d]pyrimidin-3-yl)-N-(4-fluoropyridin-2-yl)benzamide], for which, at ITK, the IC50 worked out at 47.9 nM and the “Selectivity (based on IC50)” value came to 31.9. For the same compound, the IC50 at BTK is 1.5 nM.
For the compound `N#CC(=CC1CC1)C(=O)N1C[C@H]2CC(n3nc(-c4ccc(C(=O)Nc5ccccn5)cc4)c4c(N)ncnc43)[C@H]1C2` (stereo partly drawn) [Ex. 75, 4-(4-amino-1-((1R,4R)-2-(2-cyano-3-cyclopropylacryloyl)-2-azabicyclo[2.2.1]heptan-6-yl)-1H-pyrazolo[3,4-d]pyrimidin-3-yl)-N-(pyridin-2-yl)benzamide], on ITK, the IC50 stood at 305 nM and the “Selectivity (based on IC50)” value was 76.2. Besides, the IC50 on BTK was 4 nM.
For `C=CC(=O)N1C[C@@H]2C[C@H]1[C@@H](n1nc(-c3ccc(C(=O)Nc4ccccn4)cc3Cl)c3c(N)ncnc31)C2` [Ex. 80, 4-(1-((1S,4R,6S)-2-acryloyl-2-azabicyclo[2.2.1]heptan-6-yl)-4-amino-1H-pyrazolo[3,4-d]pyrimidin-3-yl)-3-chloro-N-(pyridin-2-yl)benzamide], in that order: 32.1 nM, 26.8 and 1.2 nM.
As to `C=CC(=O)N1C[C@@H]2C[C@H]1[C@@H](n1nc(-c3ccc(C(=O)Nc4ccccn4)cc3OC)c3c(N)ncnc31)C2` [Ex. 81, 4-(1-((1S,4R,6S)-2-acryloyl-2-azabicyclo[2.2.1]heptan-6-yl)-4-amino-1H-pyrazolo[3,4-d]pyrimidin-3-yl)-3-methoxy-N-(pyridin-2-yl)benzamide], on ITK, the IC50 is above 200 nM and the “Selectivity (based on IC50)” value was above 200. Besides, the IC50 at BTK worked out at 1 nM.
For `N#CC(=CC1CC1)C(=O)N1C[C@@H]2C[C@@H]1[C@@H](n1nc(-c3ccc(C(=O)Nc4ccccn4)cc3F)c3c(N)ncnc31)C2` [Ex. 82, 4-(4-amino-1-((1R,4R,6S)-2-(2-cyano-3-cyclopropylacryloyl)-2-azabicyclo[2.2.1]heptan-6-yl)-1H-pyrazolo[3,4-d]pyrimidin-3-yl)-3-fluoro-N-(pyridin-2-yl)benzamide], in that order: above 200 nM, 55.6 and 3.6 nM.
For `N#CC(=CC1CC1)C(=O)N1C[C@@H]2C[C@@H]1[C@@H](n1nc(-c3ccc(C(=O)Nc4cc(F)ccn4)cc3F)c3c(N)ncnc31)C2` [Ex. 83, 4-(4-amino-1-((1R,4R,6S)-2-(2-cyano-3-cyclopropylacryloyl)-2-azabicyclo[2.2.1]heptan-6-yl)-1H-pyrazolo[3,4-d]pyrimidin-3-yl)-3-fluoro-N-(4-fluoropyridin-2-yl)benzamide], in that order: 229 nM, 81.7 and 2.8 nM.

The values above are taken from patent US10399988B2, “4-aminopyrazolo[3,4-d]pyrimidinylazabicyclo derivatives and pharmaceutical composition comprising the same” (Daewoong Pharmaceutical Co., Ltd., priority 2016, dated 2019).
